Results on ten compounds are retold here after ChEMBL document CHEMBL1201862, “PubChem BioAssay data set” (2004).

Common to all, as to test: DTP human tumour cell line panel, 48 h
For experiment [1], the system named is HL-60.
Experiment [2] concerns SK-MEL-2.
In experiment [3] the test system is 786-0.
Experiment [4] concerns SNB-19.
The subject of experiment [5] is CAKI-1.
Experiment [6] deals with UACC-62.
Experiment [7] has as its system SNB-75.
Experiment [8] deals with OVCAR-8.
In experiment [9] the test system is UO-31.
The subject of experiment [10] is OVCAR-3.
The subject of experiment [11] is HCT-15.
For experiment [12], the system named is SF-295.
Experiment [13] relates to OVCAR-4.
Experiment [14] relates to TK-10.
The test system of experiment [15] is PC-3.
Experiment [16] deals with LOX IMVI.
Experiment [17] relates to HCC 2998.
For experiment [18], the system named is EKVX.
The test system of experiment [19] is SK-MEL-28.
Experiment [20] concerns SK-OV-3.

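The compound was tested at five concentrations on cells cultured in 96-well plates, with a 48-hour exposure period. At the GI50, growth is halved.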 Active and inactive are the calls of the source. Rule as the data show it: active = GI50 up to about 1.1 µM and inactive = higher.

Turning to `O=c1[nH]c(=O)n(COC(CO)CO)cc1-c1ccccc1`, the GI50 in experiment [1], in experiment [2], in experiment [3], in experiment [4], in experiment [5] and in experiment [6] was > 100 µM (inactive) in each case. In addition, the GI50 was > 100 µM (inactive) in experiment [7]; > 100 µM (inactive) in [8]; > 100 µM (inactive) in experiment [9]; > 100 µM (inactive) in [10]; above 100 µM in experiment [11]; > 100 µM (inactive) in experiment [12]. For the same compound, the GI50 in [13], in experiment [14], in experiment [15], in experiment [16], in experiment [17] and in experiment [18] was > 100 µM (inactive) throughout. The GI50 in experiment [19] and in [20] was > 100 µM (inactive) each time.

Turning to `CN(C)/C=N/C1CCC(C(C)(C)C)CC1` (stereo not given), the GI50 in experiment [1] is 15.3 µM (inactive); in [2], 18.6 µM (inactive); in experiment [3], 17.6 µM (inactive); in experiment [4], 20.4 µM (inactive); in experiment [5], 18.9 µM (inactive); in [6], 19 µM (inactive). For the same compound, the GI50 in experiment [7] was 19.5 µM (inactive); in experiment [8], 15.6 µM (inactive); in [9], 16.3 µM (inactive); in [10] it was 14.5 µM (inactive); in experiment [11], 17.2 µM; in experiment [12], 17.4 µM (inactive). Moreover, the GI50 was 18 µM (inactive) in experiment [13]; 21.8 µM (inactive) in [14]; 15.1 µM (inactive) in experiment [15]; 15.5 µM (inactive) in experiment [16]; 14.8 µM (inactive) in [17]; 22.4 µM (inactive) in experiment [18]. The GI50 was 15.9 µM (inactive) in experiment [19] and 21.3 µM (inactive) in experiment [20].

With `CC[n+]1c(/C=C/c2ccc(N(CCCl)CCCl)cc2)ccc2cc(NC(=O)/C=C/c3ccccc3)ccc21`, the GI50 in experiment [1] was 0.115 µM (active); in [2], 0.431 µM (active); in experiment [3] it was 0.336 µM (active); in experiment [4] it was 0.393 µM (active); in [5] it was 2.13 µM (inactive); in experiment [6], 0.646 µM (active). The GI50 is 0.131 µM (active) in experiment [7]; 0.406 µM (active) in experiment [8]; 16.6 µM (inactive) in [9]; 1.75 µM (inactive) in experiment [10]; 14.2 µM in [11]; 0.45 µM (active) in [12]. Besides, the GI50 is 0.254 µM (active) in experiment [13]; 2.95 µM (inactive) in [14]; 0.402 µM (active) in experiment [15]; 0.329 µM (active) in experiment [16]; 0.39 µM (active) in [17]; 0.927 µM (active) in experiment [18]. The GI50 in experiment [19] is 0.762 µM (active); in experiment [20], 0.578 µM (active).

Take `CC1(C)OCC2OC(n3cnc4c(N)nc(Cl)nc43)C(OS(C)(=O)=O)C2O1` (stereo not given): the GI50 in experiment [1], in [2], in experiment [3], in experiment [4], in [5] and in experiment [6] was > 100 µM (inactive) throughout. Also, the GI50 is > 100 µM (inactive) in [7]; > 100 µM (inactive) in experiment [8]; > 100 µM (inactive) in experiment [9]; > 100 µM (inactive) in experiment [10]; above 100 µM in [11]; > 100 µM (inactive) in experiment [12]. For the same compound, the GI50 in experiment [13], in [14], in experiment [15], in experiment [16], in experiment [17] and in experiment [18] was > 100 µM (inactive) each time. In addition, the GI50 in experiment [19] and in [20] was > 100 µM (inactive) in each case.

For the compound `O=C(O)[C@H](c1ccccc1)[C@@H](C(=O)O)c1ccccc1`, the GI50 in experiment [1] is 0.228 µM (active); in experiment [2], > 100 µM (inactive); in experiment [3] it was > 100 µM (inactive); in experiment [4] it was > 100 µM (inactive); in [5], > 100 µM (inactive); in experiment [6], > 100 µM (inactive). The GI50 in [7] was > 100 µM (inactive); in [8] it was > 100 µM (inactive); in [9] it was > 100 µM (inactive); in experiment [10] it was > 100 µM (inactive); in [11], above 100 µM; in experiment [12], > 100 µM (inactive). In addition, the GI50 in experiment [13], in [14], in experiment [15], in experiment [16], in experiment [17] and in experiment [18] was > 100 µM (inactive) throughout. For the same compound, the GI50 in experiment [19] and in experiment [20] was > 100 µM (inactive) in each case.

On to `C=CCn1c2ccccc2[n+]2cc([N+](=O)[O-])ccc12`, for which the GI50 in [1] is 17.3 µM (inactive); in [2], 27.2 µM (inactive); in experiment [3], 46.2 µM (inactive); in experiment [4], 66.2 µM (inactive); in [5], 32.1 µM (inactive); in [6] it was 28.6 µM (inactive). Besides, the GI50 in experiment [7] was 33.1 µM (inactive); in [8] it was 27 µM (inactive); in experiment [9], 48.4 µM (inactive); in experiment [10], 24.5 µM (inactive); in experiment [11], 34.5 µM; in experiment [12], > 100 µM (inactive). The GI50 is 77.4 µM (inactive) in experiment [13]; 61.7 µM (inactive) in experiment [14]; 48.8 µM (inactive) in experiment [15]; 30.5 µM (inactive) in [16]; 54.8 µM (inactive) in experiment [17]; 37 µM (inactive) in experiment [18]. The GI50 was 34.2 µM (inactive) in experiment [19] and 47.2 µM (inactive) in experiment [20].

As for `CCN(CC)CCC1CCCCN1CC(=O)N1c2ccccc2NC(=O)CC1C` (stereo not given), the GI50 in [1], in experiment [2], in [3], in experiment [4], in experiment [5] and in [6] was > 100 µM (inactive) each time. Also, the GI50 was 0.0933 µM (active) in [7]; > 100 µM (inactive) in experiment [8]; > 100 µM (inactive) in experiment [9]; > 100 µM (inactive) in experiment [10]; above 100 µM in [11]; > 100 µM (inactive) in experiment [12]. In addition, the GI50 in experiment [13], in [14], in experiment [15], in experiment [16], in experiment [17] and in [18] was > 100 µM (inactive) each time. In addition, the GI50 in experiment [19] and in experiment [20] was > 100 µM (inactive) each time.

Take `O=C(CC(O)(C(F)(F)Cl)C(F)(F)Cl)CC(O)(C(F)(F)Cl)C(F)(F)Cl`: the GI50 was 1.78 µM (inactive) in experiment [1]; 1.13 µM (inactive) in experiment [2]; 2.89 µM (inactive) in experiment [3]; 1.71 µM (inactive) in experiment [4]; 2 µM (inactive) in experiment [5]; 0.738 µM (active) in experiment [6]. The GI50 in experiment [7] was 1.76 µM (inactive); in [8], 2.58 µM (inactive); in [9], 0.929 µM (active); in experiment [10] it was 1.12 µM (inactive); in experiment [11] it was 1.07 µM; in experiment [12], 2.36 µM (inactive). The GI50 in [13] was 1.33 µM (inactive); in experiment [14] it was 1.81 µM (inactive); in experiment [15], 1.11 µM (active); in experiment [16], 3.83 µM (inactive); in experiment [17], 1.74 µM (inactive); in [18] it was 1.21 µM (inactive). Further, the GI50 in [19] is 1.95 µM (inactive); in experiment [20] it was 1.87 µM (inactive).

As for `Cc1c2cccc-2c2cc(O)c3ccccc3c2n1-c1ccc(N(C)C)cc1`, the GI50 in experiment [1] is 19.9 µM (inactive); in [2], 16.7 µM (inactive); in experiment [3], 12.2 µM (inactive); in experiment [4] it was 16.4 µM (inactive); in experiment [5] it was 16 µM (inactive); in [6] it was 16 µM (inactive). Moreover, the GI50 was 4.06 µM (inactive) in experiment [7]; 15.9 µM (inactive) in [8]; 11.5 µM (inactive) in [9]; 6.46 µM (inactive) in [10]; 5.37 µM in experiment [11]; 10.1 µM (inactive) in [12]. The GI50 is 3.37 µM (inactive) in experiment [13]; 13 µM (inactive) in experiment [14]; 11.7 µM (inactive) in experiment [15]; 13.4 µM (inactive) in experiment [16]; 13 µM (inactive) in [17]; 2.83 µM (inactive) in experiment [18]. In addition, the GI50 is 17.2 µM (inactive) in [19] and 15.8 µM (inactive) in experiment [20].

With `Nc1nc(N)c2nc(CN(C=O)c3ccc(C(=O)O)cc3)cnc2n1`, the GI50 in experiment [1] is 18.8 µM (inactive); in [2] it was > 100 µM (inactive); in [3], 3.05 µM (inactive); in experiment [4], > 42.2 µM (inactive); in experiment [5] it was > 28.2 µM (inactive); in experiment [6], 7.11 µM (inactive). Besides, the GI50 in [7] is > 52.1 µM (inactive); in [8], 3.85 µM (inactive); in experiment [9] it was > 22.3 µM (inactive); in experiment [10], > 100 µM (inactive); in experiment [11] it was 7.14 µM; in [12], 17.1 µM (inactive). Further, the GI50 in experiment [13] is > 100 µM (inactive); in experiment [14] it was > 29.2 µM (inactive); in experiment [15], 0.668 µM (active); in experiment [16] it was 4.27 µM (inactive); in [17] it was > 100 µM (inactive); in experiment [18], > 26.4 µM (inactive). In addition, the GI50 in experiment [19] was > 100 µM (inactive); in experiment [20] it was > 30.1 µM (inactive).
